This note sets out measurements from ChEMBL document CHEMBL1144282, “Synthesis and SAR of 5,6-diarylpyridines as human CB1 inverse agonists” (Bioorg Med Chem Lett, 2005).

One series has as its target Cannabinoid receptor 2 (Homo sapiens, UniProt P34972).
The nature of series [1]: in vivo. The settings on record: rat, iv, 1 mg/kg.
Description: Volume of distribution at steady state was determined in rat after intravenous administration of 1 mg/kg compound
Series [2] is described as follows: in vivo. The settings on record: rat, po, 2 mg/kg.
Series [3] is described as follows: in vivo. The settings on record: rat, iv, 1 mg/kg. This is another data set of the same source.
Series [4] can be described thus: in vivo. The following applies: rat, iv, 1 mg/kg. This is another data set of the same source.
Description: Half life period was determined in rat after intravenous administration of 1 mg/kg compound

Sequence of Cannabinoid receptor 2 (P34972 whole entry): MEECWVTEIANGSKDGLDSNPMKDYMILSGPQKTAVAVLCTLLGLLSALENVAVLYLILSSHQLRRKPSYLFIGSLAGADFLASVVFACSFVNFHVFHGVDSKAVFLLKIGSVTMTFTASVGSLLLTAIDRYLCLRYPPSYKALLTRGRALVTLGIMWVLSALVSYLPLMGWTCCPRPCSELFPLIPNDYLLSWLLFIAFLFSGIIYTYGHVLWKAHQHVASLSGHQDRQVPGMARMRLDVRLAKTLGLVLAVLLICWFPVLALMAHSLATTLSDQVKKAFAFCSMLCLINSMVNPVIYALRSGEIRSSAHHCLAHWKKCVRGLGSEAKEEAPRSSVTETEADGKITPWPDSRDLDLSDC
Description for Cannabinoid receptor 2: Inhibitory concentration tested against human Cannabinoid receptor 2 (hCB2)

`CCCNC(=O)c1cc(-c2ccc(Cl)cc2)c(-c2ccc(Cl)cc2Cl)nc1OCc1ccc(F)c(F)c1` returned a half-inhibitory concentration (IC50) against Cannabinoid receptor 2 of 815 nM. The Vd in the series “in vivo [1]” amounted to 0.4 L/kg. The compound also registered a bioavailability in the series “in vivo [2]” of 12%. Also, the clearance in “in vivo [3]” was 5.8 mL/min/kg. Further, in the series “in vivo [4]”, the half-life was 2.5 h.
